In patent publication US9669004B2 (THE ADMINISTRATORS OF THE TULANE EDUCATIONAL FUND, priority 2010, dated 2017):
“Also recorded” adds a separate entry of the source.

Legend:
MCF-7 cell tumorigenesis = experiment: estrogen stimulated MCF-7 cell tumorigenesis xenograft model; type: in vivo, Nu/Nu mice; settings: day 37 post cell injection; mean±SEM; control 351.17±43.88
Protocol: 4-6 week old ovariectomized female Nu/Nu mice were injected bilaterally in the mammary fat pad (MFP) with 5×10^6 MCF-7 cells in matrigel (reduced factor). […] Tumors were allowed to form and at day 15 post cell injection mice were randomized into groups (n=5). Animals were treated daily with i.p. injections of either vehicle (1:5 DMSO/PBS) or analog 2 (50 mg/kg/animal). Tamoxifen animals were implanted with a slow release tamoxifen pellet in the lateral area of the neck (opposite side from E2 pellet). ICI animals were given a onetime i.p. injection of ICI 182,780 (5 mg in castor oil). Tumor size was measured 3 times weekly using digital calipers. Data represented as mean tumor volume±SEM.
Due to the anti-estrogenic effects of analog 2 on MCF-7 cells observed in the in vitro biological assays, this analog was selected for further testing of estrogen stimulated MCF-7 cell tumorigenesis using a xenograft model. Ovariectomized female immunocompromised mice were injected with MCF-7 cells and supplemented with exogenous estrogen pellets. Once tumors were palpable animals were treated with analog 2, tamoxifen, or ICI and tumor volume compared to vehicle control animals.
Xenograft experiments were conducted using previously published protocols. Briefly, 4-6 week old female ovariectomized NU/Nu mice were obtained from Charles River Laboratories (Wilmington, Mass.). The animals were allowed a period of adaptation in a sterile and pathogen-free environment with phytoestrogen-free food and water ad libitum. MCF-7 cells were harvested in the exponential growth phase using a PBS/EDTA solution and washed. Mice were injected bilaterally in the mammary fat pad (M.F.P) with 5×10^6 viable cells suspended in 50 μL sterile PBS mixed with 100 μL Matrigel (reduced factor; BD Biosciences, Bedford, Mass.). […] All procedures in animals were carried out under anesthesia using a mix of isofluorane and oxygen delivered by mask. […] Tumor size was measured 3 times weekly using digital calipers. The volume of the tumor was calculated using the following formula: 4/3 πLS^2 (L=larger radius; S=shorter radius). […]

MCF-7 cells = experiment: clonogenic (colony) assay; type: cell-based
Protocol: MCF-7 cells were placed in phenol red-free DMEM supplemented with 5% dextran-coated charcoal-treated FBS for 48 h before plating. MCF-7 cells (1000) were plated in six well plates. […] Colonies of >50 cells were counted as positive. Results are normalized to percentage of clonogenic survival from DMSO control cells.

[1] = system: progesterone receptor (PgR) gene expression in MCF-7 cells; experiment: PgR mRNA expression by quantitative real time RT-PCR; type: cell-based; settings: for increase in PgR expression compared with control: ligands only, vs DMSO; for level of PgR expression: ligand in the presence of 0.1 nM E2, MCF-7 (E2 alone 5-fold)
From the text: Total RNA was isolated from MCF-7 cells, reverse-transcribed into cDNA and subjected to real-time RT-PCR analysis for quantification. […] Results are expressed as the mean unit±SEM.

[2] = system: ERE transcriptional activity in MCF-7 cells; experiment: ERE luciferase reporter gene assay, estrogenic activity; type: cell-based; settings: for estrogenic (ERE) activity, in words: MCF-7, compound alone; for ERE transcriptional activity induced: 25 μM
Protocol: MCF-7 cells were transiently transfected with pGL2-ERE2x-TK-luciferase plasmid. […] While this order varied slightly as analog concentrations were increased further to 25 μM, several trends have emerged in the dose-dependent data. […] Second, shorter alkyl groups appear to have less effect on the reduction of ER agonist activity than their longer, bulkier counterparts.

[3] = system: E2 stimulation on ERE transcriptional activity in MCF-7 cells; experiment: ERE luciferase reporter gene assay in the presence of 0.1 nM E2, antiestrogenic activity; type: cell-based; settings: for inhibition at 25 µM: Homo sapiens, MCF7, 25 μM (highest concentration) plus 0.1 nM E2, read-out: reduction of estradiol-dependent luciferase activity
Protocol: MCF-7 cells were transiently transfected with pGL2-ERE2x-TK-luciferase plasmid. […] The luciferase activities of the treated cells were then measured by the ERE reporter gene assay.

BT-549 = experiment: transwell migration assay; type: cell-based; settings: 10 μM, 24 hours
Protocol: (§1) TNBC cells were seeded (2.5×10^4 in 500 μl 10% DMEM) in the upper chamber of a 24 well transwell system. DMEM supplemented with FBS (10%) was used as a chemoattractant in the lower wells. After 24 hours of treatment (DMSO or analog 2 10 μM), membranes were scrubbed, stained with 0.1% crystal violet, and the number of migrated cells analyzed by microscopy. Data represented as normalized means of triplicate experiments±SEM. […] The TNBC phenotype is characterized by highly aggressive and migratory cells. The ability of analog 2 to inhibit this migration indicates its potential as a novel anti-metastatic therapeutic in the triple-negative breast carcinoma setting.

MDA-MB-157 = experiment: transwell migration assay; type: cell-based; settings: 10 μM, 24 hours
Protocol: as §1

MDA-MB-231 = experiment: transwell migration assay; type: cell-based; settings: 10 μM, 24 hours
Protocol: as §1

MDA-MB-231 cells = experiment: MDA-MB-231 xenograft tumor volume; type: in vivo, CB-17/SCID mice
Protocol: 4-6 week old female CB-17/SCID mice were allowed a period of adaptation in a sterile and pathogen-free environment with phytoestrogen-free food and water ad libitum. MDA-MB-231 cells were harvested in the exponential growth phase using a PBS/EDTA solution and washed. Mice were injected bilaterally in the mammary fat pad (MFP) with 5×10^6 viable cells suspended in 50 μL sterile PBS mixed with 100 μL Matrigel (reduced factor; BD Biosciences, Bedford, Mass.). Tumors were allowed to form, and at day 4 post cell injection mice were randomized into groups of 5 mice each. Mice were treated daily with intra-peritoneal (IP) injections of either vehicle (DMSO) or analog 2 (50 mg/kg/animal/day) for 14 days. External tumor size was measured using digital calipers and tumor volume calculated using the formula: 4/3 π LS^2 (L=larger radius; S=shorter radius). At necropsy, animals were euthanized by cervical dislocation after exposure to CO2. […] This trend continued until the mice were euthanized at day 18, where tumor volume for control mice averaged 188±18.78 mm^3 and the tumor volume for mice treated with analog 2 averaged 91.11±10.15 mm^3.

[4] = system: AKT and mTOR phosphorylation in MDA-MB-231 cells; experiment: immunoblot of phospho-AKT and mTOR; type: cell-based
Protocol: The effects of analog 2 on TNBC may be mediated via alterations in the PI3K/AKT/mTOR pathway. After 72 hours in 5% charcoal-stripped fetal bovine serum (CSFBS) DMEM phenol-free medium, MDA-MB-231 cells were re-fed with either medium-containing vehicle, analog 2 (10 μM, 4 hours), analog 2 (4 hours) followed by EGF stimulation (50 ng/mL, 30 minutes), or EGF alone (30 minutes). Membranes were probed with primary antibodies according to manufacturers' protocol. Antibodies: phosho-AKT (S473 and T308), mTOR ([…]), and corresponding total protein antibodies (Cell Signaling), using rho as a loading control (Santa Cruz).

## C[C@]12CC[C@@H]3c4ccc(O)cc4C[C@@H](CCCCCCCCC[S+]([O-])CCCC(F)(F)C(F)(F)F)[C@H]3[C@@H]1CC[C@@H]2O (stereo partly drawn) [ICI 182,780]
MCF-7 cell tumorigenesis
  tumor volume: 130.95±23.49 mm3

## C[C@]12CC[C@@H]3c4ccc(O)cc4CC[C@H]3[C@@H]1CC[C@@H]2O [E2, 17β-estradiol, reference compound]
MCF-7 cells; 0.1 nM, vs DMSO treated controls
  increase in clonogenicity of MCF-7 cells: approximately 3 fold
[1]; MCF-7
  increase in PgR expression compared with control: 5 fold

## O=c1c(-c2ccc(O)cc2)coc2cc(OC3CCCC3)ccc12 [3g, 7-Cyclopentyloxy-3-(4-hydroxyphenyl)chromen-4-one]
[2]
  estrogenic (ERE) activity, in words: negligible ERE activity
[3]
  inhibition at 25 µM: > 60%

## CCCCOc1ccc2c(=O)c(-c3ccc(O)cc3)coc2c1 [3e, 7-Butoxy-3-(4-hydroxyphenyl)chromen-4-one]
[3]
  inhibition at 25 µM: < 47%

## CC(C)Oc1ccc2c(=O)c(-c3ccc(O)cc3)coc2c1 [3d, 3-(4-Hydroxyphenyl)-7-isopropoxychromen-4-one]
[3]
  inhibition at 25 µM: > 60%

## CCCOc1ccc2c(=O)c(-c3ccc(O)cc3)coc2c1 [3c, 3-(4-Hydroxyphenyl)-7-propoxychromen-4-one]
[2]; MCF-7, normalized to E2 (100)
  ERE transcriptional activity induced: 38.4%
[3]
  inhibition at 25 µM: < 47%

## CCOc1ccc2c(=O)c(-c3ccc(O)cc3)coc2c1 [3b, 3-(4-Hydroxyphenyl)-7-ethoxychromen-4-one]
[2]; MCF-7, normalized to E2 (100)
  ERE transcriptional activity induced: 80.4%
[3]
  inhibition at 25 µM: < 47%

## O=c1c(-c2ccc(O)cc2)coc2cc(O)ccc12 [daidzein, reference compound]
[2]
  estrogenic (ERE) activity, in words: more potent estrogenic activity than any of its derivatives
MCF-7 cells; 1 μM, without E2, vs DMSO
  increase in clonogenicity of MCF-7 cells: over 3 fold
MCF-7 cells; 10 μM, without E2, vs DMSO
  increase in clonogenicity of MCF-7 cells: 2.5 times
[1]
  level of PgR expression: 5 fold
[1]; MCF-7
  increase in PgR expression compared with control: 3 fold

## CC1(C)C=Cc2c(ccc3c(=O)c(-c4ccc(O)cc4)coc23)O1 [compound 2, 3-(4-Hydroxyphenyl)-8,8-dimethyl-8H-pyrano[2,3-f]chromen-4-one]
[2]
  estrogenic (ERE) activity, in words: little or no estrogen activity; also recorded: negligible ERE activity
[3]; 25 μM plus 0.1 nM E2
  blocking of ERE activity, in words: completely blocking ERE activity
MCF-7 cells; 10 μM plus 0.1 nM estradiol
  clonogenicity in the presence of E2, in words: inhibit the clonogenicity of MCF-7 cells completely
MCF-7 cells; 10 μM, without E2
  cell clonogenicity, in words: completely blocked cell clonogenicity
MCF-7 cells; Homo sapiens, MCF7, read-out: inhibition of clonogenicity
  inhibition at 1 µM: 15%
[1]
  level of PgR expression: 3 fold
[1]; ligand only, MCF-7
  PgR expression compared with DMSO, in words: decrease in PgR expression
MCF-7 cell tumorigenesis
  tumor volume: 241.53±68.29 mm3
BT-549
  number of migrated cells compared to control (normalized to 100%): 0.08%
MDA-MB-157
  number of migrated cells compared to control (normalized to 100%): 25.57%
MDA-MB-231
  number of migrated cells compared to control (normalized to 100%): 0%
MDA-MB-231 cells; day 18, 50 mg/kg/animal/day IP for 14 days, control 188±18.78
  tumor volume: 91.11±10.15 mm^3
MDA-MB-231 cells; seven days after cell injection, three days' treatment
  tumor volume vs control, in words: statistically less than those of control mice
[4]; 10 μM 4 hours then EGF 50 ng/mL 30 minutes
  effect on EGF-stimulated AKT and mTOR phosphorylation, in words: significantly abrogate the effects of EGF stimulation on AKT and mTOR phosphorylation
[4]; 10 μM, 4 hours
  phospho-levels of AKT at S473 and T308, in words: significant decreases

## CC/C(=C(\c1ccccc1)c1ccc(OCCN(C)C)cc1)c1ccccc1 [tamoxifen]
MCF-7 cell tumorigenesis
  tumor volume: 178.12±41.18 mm3

## CCCCCCOc1ccc2c(=O)c(-c3ccc(O)cc3)coc2c1 [3h, 7-Hexyloxy-3-(4-hydroxyphenyl)chromen-4-one]
[3]
  inhibition at 25 µM: < 47%

## COc1ccc2c(=O)c(-c3ccc(O)cc3)coc2c1 [3a, 3-(4-Hydroxyphenyl)-7-methoxychromen-4-one]
[2]; 10 μM, MCF-7, normalized to E2 (100)
  ERE activity: 38%
[2]; MCF-7, normalized to E2 (100)
  ERE transcriptional activity induced: 70.9%
[3]
  inhibition at 25 µM: < 47%
MCF-7 cells; 1 μM, without E2, vs DMSO
  increase of cell proliferation (clonogenicity): 43%
MCF-7 cells; 10 μM, without E2, vs DMSO
  increase in clonogenicity of MCF-7 cells: 24%
[1]
  level of PgR expression: 4 fold
[1]; MCF-7
  increase in PgR expression compared with control: 3 fold

## CC(C)COc1ccc2c(=O)c(-c3ccc(O)cc3)coc2c1 [3f, 3-(4-Hydroxyphenyl)-7-isobutoxychromen-4-one]
[2]
  estrogenic (ERE) activity, in words: negligible ERE activity
[3]
  inhibition at 25 µM: > 60%
